From PubChem BioAssay AID1259407 (Chemical Carcinogenesis Research Information System (CCRIS), 2018)
The source made the active and inactive calls. No rule for the calls is given here.

Test system: CCRIS mutagenicity, Ames/micronucleus/aberration tests
Test: CCRIS mutagenicity studies
[1] = Test System: AMES SALMONELLA TYPHIMURIUM, Strain/Indicator: TA98, Metabolic Activation: NONE, Method: PREINCUBATION
[2] = Test System: AMES SALMONELLA TYPHIMURIUM, Strain/Indicator: TA100, Metabolic Activation: NONE, Method: PREINCUBATION
[3] = Test System: AMES SALMONELLA TYPHIMURIUM, Strain/Indicator: TA1535, Metabolic Activation: NONE, Method: PREINCUBATION
[4] = Test System: AMES SALMONELLA TYPHIMURIUM, Strain/Indicator: TA100, Metabolic Activation: NONE, Method: STANDARD PLATE
[5] = Test System: AMES SALMONELLA TYPHIMURIUM, Strain/Indicator: TA100, Metabolic Activation: RAT, LIVER, S-9, AROCLOR 1254, Method: STANDARD PLATE
[6] = Test System: AMES SALMONELLA TYPHIMURIUM, Strain/Indicator: TA102, Metabolic Activation: NONE, Method: STANDARD PLATE
[7] = Test System: AMES SALMONELLA TYPHIMURIUM, Strain/Indicator: TA1537, Metabolic Activation: NONE, Method: STANDARD PLATE
[8] = Test System: AMES SALMONELLA TYPHIMURIUM, Strain/Indicator: TA98, Metabolic Activation: NONE, Method: STANDARD PLATE
[9] = Test System: AMES SALMONELLA TYPHIMURIUM, Strain/Indicator: TA98, Metabolic Activation: RAT, LIVER, S-9, AROCLOR 1254, Method: STANDARD PLATE
[10] = Test System: AMES SALMONELLA TYPHIMURIUM, Strain/Indicator: TA1535, Metabolic Activation: NONE, Method: STANDARD PLATE
[11] = Test System: AMES SALMONELLA TYPHIMURIUM, Strain/Indicator: TA1535, Metabolic Activation: RAT, LIVER, S-9, AROCLOR 1254, Method: STANDARD PLATE
[12] = Test System: AMES SALMONELLA TYPHIMURIUM, Strain/Indicator: TA1537, Metabolic Activation: RAT, LIVER, S-9, AROCLOR 1254, Method: STANDARD PLATE

## CCNc1ccccc1
Test System: AMES SALMONELLA TYPHIMURIUM, Strain/Indicator: TA97, Metabolic Activation: HAMSTER, LIVER, S-9, AROCLOR 1254 (10 OR 30%), Method: PREINCUBATION
  mutagenic call: inactive; negative
Test System: AMES SALMONELLA TYPHIMURIUM, Strain/Indicator: TA97, Metabolic Activation: NONE, Method: PREINCUBATION
  mutagenic call: inactive; negative
Test System: AMES SALMONELLA TYPHIMURIUM, Strain/Indicator: TA97, Metabolic Activation: RAT, LIVER, S-9, AROCLOR 1254 (10 OR 30%), Method: PREINCUBATION
  mutagenic call: inactive; negative
Test System: AMES SALMONELLA TYPHIMURIUM, Strain/Indicator: TA98, Metabolic Activation: HAMSTER, LIVER, S-9, AROCLOR 1254 (10 OR 30%), Method: PREINCUBATION
  mutagenic call: inactive; negative
[1]
  mutagenic call: inactive; negative
Test System: AMES SALMONELLA TYPHIMURIUM, Strain/Indicator: TA98, Metabolic Activation: RAT, LIVER, S-9, AROCLOR 1254 (10 OR 30%), Method: PREINCUBATION
  mutagenic call: inactive; negative
Test System: AMES SALMONELLA TYPHIMURIUM, Strain/Indicator: TA100, Metabolic Activation: HAMSTER, LIVER, S-9, AROCLOR 1254 (10 OR 30%), Method: PREINCUBATION
  mutagenic call: inactive; negative
[2]
  mutagenic call: inactive; negative
Test System: AMES SALMONELLA TYPHIMURIUM, Strain/Indicator: TA100, Metabolic Activation: RAT, LIVER, S-9, AROCLOR 1254 (10 OR 30%), Method: PREINCUBATION
  mutagenic call: inactive; negative
Test System: AMES SALMONELLA TYPHIMURIUM, Strain/Indicator: TA1535, Metabolic Activation: HAMSTER, LIVER, S-9, AROCLOR 1254 (10 OR 30%), Method: PREINCUBATION
  mutagenic call: inactive; negative
[3]
  mutagenic call: inactive; negative
Test System: AMES SALMONELLA TYPHIMURIUM, Strain/Indicator: TA1535, Metabolic Activation: RAT, LIVER, S-9, AROCLOR 1254 (10 OR 30%), Method: PREINCUBATION
  mutagenic call: inactive; negative

## Cc1c(Br)c(Br)c(Br)c(Br)c1Br
Test System: AMES SALMONELLA TYPHIMURIUM, Strain/Indicator: TA98, Metabolic Activation: HAMSTER, LIVER, S-9, AROCLOR 1254 (10%), Method: PREINCUBATION
  mutagenic call: inactive; negative
[1]
  mutagenic call: inactive; negative
Test System: AMES SALMONELLA TYPHIMURIUM, Strain/Indicator: TA98, Metabolic Activation: RAT, LIVER, S-9, AROCLOR 1254 (10%), Method: PREINCUBATION
  mutagenic call: inactive; negative
Test System: AMES SALMONELLA TYPHIMURIUM, Strain/Indicator: TA100, Metabolic Activation: HAMSTER, LIVER, S-9, AROCLOR 1254 (10%), Method: PREINCUBATION
  mutagenic call: inactive; negative
[2]
  mutagenic call: inactive; negative
Test System: AMES SALMONELLA TYPHIMURIUM, Strain/Indicator: TA100, Metabolic Activation: RAT, LIVER, S-9, AROCLOR 1254 (10%), Method: PREINCUBATION
  mutagenic call: inactive; negative
Test System: AMES SALMONELLA TYPHIMURIUM, Strain/Indicator: TA1535, Metabolic Activation: HAMSTER, LIVER, S-9, AROCLOR 1254 (10%), Method: PREINCUBATION
  mutagenic call: inactive; negative
[3]
  mutagenic call: inactive; negative
Test System: AMES SALMONELLA TYPHIMURIUM, Strain/Indicator: TA1535, Metabolic Activation: RAT, LIVER, S-9, AROCLOR 1254 (10%), Method: PREINCUBATION
  mutagenic call: inactive; negative
Test System: AMES SALMONELLA TYPHIMURIUM, Strain/Indicator: TA1537, Metabolic Activation: HAMSTER, LIVER, S-9, AROCLOR 1254 (10%), Method: PREINCUBATION
  mutagenic call: inactive; negative
Test System: AMES SALMONELLA TYPHIMURIUM, Strain/Indicator: TA1537, Metabolic Activation: NONE, Method: PREINCUBATION
  mutagenic call: inactive; negative
Test System: AMES SALMONELLA TYPHIMURIUM, Strain/Indicator: TA1537, Metabolic Activation: RAT, LIVER, S-9, AROCLOR 1254 (10%), Method: PREINCUBATION
  mutagenic call: inactive; negative

## Cc1cc2c(c3ccc4ccccc4c13)[C@H]1O[C@H]1[C@@H](O)[C@@H]2O
[2]
  mutagenic call: inactive; negative

## CC(=O)N[C@@H](C(=O)N(CC(=O)O)N=O)C(C)C
[4]
  mutagenic call: active; positive
[5]
  mutagenic call: active; positive
Test System: CHO/HGPRT, Strain/Indicator: CHO-K1-BH4, Metabolic Activation: NONE
  mutagenic call: active; positive

## Nc1ccc(I)cc1
End Point: IN VITRO MICRONUCLEUS, Test System: CHL/IU CELLS, Metabolic Activation: RAT, LIVER, S-9, PHENOBARBITAL AND 5,6-BENZOFLAVONE
  mutagenic call: inactive; negative

## Cc1c(N)nc([C@H](CC(N)=O)NC[C@H](N)C(N)=O)nc1C(=O)N[C@H](C(=O)N[C@H](C)[C@@H](O)[C@H](C)C(=O)N[C@H](C(=O)NCCc1nc(-c2nc(C(=O)NCCCN[C@@H](C)c3ccccc3)cs2)cs1)[C@@H](C)O)[C@@H](O[C@@H]1O[C@@H](CO)[C@@H](O)[C@H](O)[C@@H]1O[C@H]1O[C@H](CO)[C@@H](O)[C@H](OC(N)=O)[C@@H]1O)c1cnc[nH]1
[6]
  mutagenic call: active; positive
[7]
  mutagenic call: inactive; negative

## Cc1cc(O)c2c(c1O)C(=O)c1ccccc1C2=O
[1]
  mutagenic call: inactive; negative
Test System: AMES SALMONELLA TYPHIMURIUM, Strain/Indicator: TA98, Metabolic Activation: RAT, LIVER, S-9, PCB, Method: PREINCUBATION
  mutagenic call: active; positive
[2]
  mutagenic call: inactive; negative
Test System: AMES SALMONELLA TYPHIMURIUM, Strain/Indicator: TA100, Metabolic Activation: RAT, LIVER, S-9, PCB, Method: PREINCUBATION
  mutagenic call: active; positive

## CNS(=O)(=O)c1ccc(N)cc1
[1]
  mutagenic call: inactive; negative
Test System: AMES SALMONELLA TYPHIMURIUM, Strain/Indicator: TA98, Metabolic Activation: RAT, LIVER, S-9, AROCLOR 1254, Method: PREINCUBATION
  mutagenic call: inactive; negative
[2]
  mutagenic call: inactive; negative
Test System: AMES SALMONELLA TYPHIMURIUM, Strain/Indicator: TA100, Metabolic Activation: RAT, LIVER, S-9, AROCLOR 1254, Method: PREINCUBATION
  mutagenic call: inactive; negative

## CC(=O)n1ncc(Cl)c(Cl)c1=O
[8]
  mutagenic call: inactive; negative
[9]
  mutagenic call: inactive; negative
[4]
  mutagenic call: inactive; negative
[5]
  mutagenic call: inactive; negative
[10]
  mutagenic call: inactive; negative
[11]
  mutagenic call: inactive; negative
[7]
  mutagenic call: inactive; negative
[12]
  mutagenic call: inactive; negative

## CC(C)Nc1nc(Cl)nc(NC(C)C)n1
Test System: AMES SALMONELLA TYPHIMURIUM, Strain/Indicator: TA97, Metabolic Activation: NONE, Method: STANDARD PLATE
  mutagenic call: inactive; negative
Test System: AMES SALMONELLA TYPHIMURIUM, Strain/Indicator: TA97, Metabolic Activation: RAT, LIVER, S-9, AROCLOR 1254, Method: STANDARD PLATE
  mutagenic call: inactive; negative
Test System: AMES SALMONELLA TYPHIMURIUM, Strain/Indicator: TA97A, Metabolic Activation: NONE, Method: STANDARD PLATE
  mutagenic call: inactive; negative
Test System: AMES SALMONELLA TYPHIMURIUM, Strain/Indicator: TA97A, Metabolic Activation: RAT, LIVER, S-9, AROCLOR 1254, Method: STANDARD PLATE
  mutagenic call: inactive; negative
[8]
  mutagenic call: inactive; negative
[9]
  mutagenic call: inactive; negative
[4]
  mutagenic call: inactive; negative
[5]
  mutagenic call: inactive; negative
[6]
  mutagenic call: inactive; negative
Test System: AMES SALMONELLA TYPHIMURIUM, Strain/Indicator: TA102, Metabolic Activation: RAT, LIVER, S-9, AROCLOR 1254, Method: STANDARD PLATE
  mutagenic call: inactive; negative
[10]
  mutagenic call: inactive; negative
[11]
  mutagenic call: inactive; negative
[7]
  mutagenic call: inactive; negative
[12]
  mutagenic call: inactive; negative
Test System: AMES SALMONELLA TYPHIMURIUM, Strain/Indicator: TA1538, Metabolic Activation: NONE, Method: STANDARD PLATE
  mutagenic call: inactive; negative
Test System: AMES SALMONELLA TYPHIMURIUM, Strain/Indicator: TA1538, Metabolic Activation: RAT, LIVER, S-9, AROCLOR 1254, Method: STANDARD PLATE
  mutagenic call: inactive; negative
